Results from patent US20190255175A1, “ACTIVATION OF TRPA1+ NOCICEPTORS IN THE VAGUS NERVE ATTENUATES SYSTEMIC INFLAMMATION” (THE FEINSTEIN INSTITUTE FOR MEDICAL RESEARCH, priority 2018, published 2019).

Key:
nodose ganglion neurons = experiment: Whole-cell patch clamp recordings of nodose ganglion neurons; assay type: cell-based, mice; settings: nodose neurons held at −65 mV; IL-1β 20 μg/ml
Protocol: Whole-cell patch clamp recordings were made with glass pipettes pulled on a P-97 electrode puller (Sutter Instruments, Novato, Calif.). The resistance of the pipettes was 2-4 MΩ when filled with an intracellular solution (in mM: CsCl 140, HEPES 10, EGTA 5, Mg-ATP 2, NaGTP 0.3, MgCl2 2, Phosphocreatine 10, pH 7.25 adjusted with CsOH). Cells were superfused at a rate of 2 ml/min with an external bath solution containing the following (in mM): 150 NaCl, 2.5 KCl, 10 HEPES, 10 D-glucose, 2 CaCl2, and 1 MgCl2, pH 7.3-7.4. Experiments were performed at room temperature (22-24° C.). Currents from neurons were monitored with an Multiclamp 700B amplifier (Molecular Devices, Union City, Calif.), acquired through Digidata 1550B (Molecular Devices) onto a computer using pClamp 11 software (Molecular Devices). Data were analyzed using Clampfit 11 (Molecular Devices). All chemicals used for electrophysiological recordings were purchased from Sigma. All drugs and solutions were made fresh from drug stock solutions.
Using patch clamp recordings, IL-1β responses were recorded in nodose ganglion neurons. Application of IL-1β (20 μg/ml) induced calcium influx as indicated by increase of fluorescence in 6 out of 332 (1.8%) sensory nodose ganglion neurons from VGlut2-GCaMP3 mice. Next, whole-cell patch clamp recordings were carried out on the same neurons that responded to IL-1β in calcium influx analysis. When the membrane potential was held at −65 mV, bath application of IL-1β (20 μg/ml) produced slow inward currents in 4 out of 332 (1.2%) nodose neurons. The amplitude of IL-1β induced currents are 108±23 pA (n=4). […] In current-clamp mode, IL-1β reduced action potential threshold from −25±2 mV to −31±3 mV (n=4). […] To further determine the potential interaction of TRPA1 with IL-1β, nodose ganglion neurons from TRPA1 KO mice were examined in a culture system. […] IL1R1 co-localizes with TRPA1 on nodose ganglion neurons, as was determined using immunohistochemical staining.

[1] = biological target: T1, TRPA1+ fibers of the vagus nerve (Mus musculus, UniProt Q8BLA8); experiment: Optovin applied to the vagus nerve with 405 nm optical stimulation, followed by LPS endotoxemia; serum TNF; assay type: in vivo, mice
T1 construct: optovin was applied directly to nerve; from tissue; also TRPA1 KO and α7 nAChR KO groups
Protocol: (§1) FIG. 1A-1C. Stimulation of sensory TRPA1+ vagus fibers attenuates serum TNF levels in endotoxemic mice. A) Wild type mice were treated with optovin directly to the vagus nerve, followed by exposure to no light (n=9) or 405 nm light (n=10). Mice were also subjected to a proximal vagotomy (n=12) cutting off afferent signaling to the brain. These mice were also treated with optovin and stimulated with 405 nm light. B) TRPA1 KO mice were treated with optovin directly to the vagus nerve. The mice were then treated with no light (n=9) or 405 nm light (n=8). C) α7 KO mice were treated with optovin directly to the vagus nerve. The mice were then treated with no light (n=10) or 405 nm light (n=12). Two asterisks indicate p<0.01.
(§2) Optical stimulation was generated by Thor Labs LED driver DC4100, with a 405 nm LED model M405L3 (Newton, N.J.). Sham mice underwent surgical control up to the point of identifying the cervical vagus nerve, without isolating it from the bundle. In both conditions 2 μl of optovin was applied directly on the nerve for 2 minutes prior to stimulation. Sham animals received no light applied to the nerve. The stimulated group received 405 nm light 1000 mA, 10 hz, with a 10% duty cycle for 5 minutes with an approximate power of 80-85 μW. Animals then recovered for 2 hours and were administered LPS (8 mg/kg) via intraperitoneal (ip) injection. Mice were euthanized 1.5 hours after LPS administration, with serum collected.
(§3) All vagotomized animas had their vagus nerve isolated. Prior to the vagotomy a 6.0 suture was tied around the vagus nerve. The nerve was then cut proximally or above (blocking left vagus nerve signaling to the brain while signaling to the periphery remained intact) to where 2 μl of optovin was to be added. All mice were stimulated using the same parameters as previously indicated. Animals then recovered for 2 hours and were administered LPS (8 mg/kg) via intraperitoneal (ip) injection. Mice were euthanized 1.5 hours after LPS administration, with serum collected.
(§4) Vagus nerve stimulation has been used as a treatment for peripheral inflammation in both rodents and humans^18-21. TRPA1 is an ion channel that has been indicated in neural sensing of inflammation within the skin and lungs 22-24. To determine TRPA1's role in the inflammatory reflex, photochemical stimulation of TRPA1+ fibers of the vagus nerve was carried out using a molecule called optovin. Optovin selectively binds to TRPA1 making it photoactive to 405 nm light^25. To directly stimulate the TRPA1+ vagus nerve fibers, optovin was applied directly to nerve, with one group unstimulated and one group stimulated with the 405 nm light for 5 minutes with LPS (8 mg/kg) administer 2 hours later. […]

[2] = system: TRPA1+ fibers of the vagus nerve; experiment: as above; assay type: in vivo, mice; settings: TRPA1 KO mice; optovin + 405 nm light vs no light; LPS 8 mg/kg
Protocol: as §1, §2, §3, §4

TRPA1+ neurons [3] = biological target: T2, TRPA1+ neurons (Mus musculus, UniProt Q8BLA8); experiment: Pharmacological stimulation of TRPA1+ neurons with polygodial in endotoxemic mice; TNF by ELISA; assay type: in vivo; settings: wildtype mice; polygodial 5 mg/kg ip 30 min before endotoxin 0.1 mg/kg ip; collected after 90 min
T2 construct: from tissue; host or cells: living mice (wild type and TRPA1 KO), systemic i.p. dosing; TRPA1+ neurons
Protocol: (§5) FIG. 2A-2D. […] A) Serum: wildtype mice received intraperitoneal administration of polygodial (5 mg/kg) (n=6) or vehicle (n=5). After 30 minutes, mice were subjected to endotoxemia (0.1 mg/kg endotoxin, i.p.). Blood was collected after 90 min and serum TNF levels were determined by ELISA. *p<0.05. B) Spleen: wildtype mice received intraperitoneal administration of polygodial (5 mg/kg) (n=7) or vehicle (n=6). After 30 minutes, mice were subjected to endotoxemia (0.1 mg/kg endotoxin, i.p.). Spleens were collected after 90 min and serum TNF levels were determined by ELISA. *p<0.05. C, D) Pharmacological Stimulation of TRPA1+ neurons fail to attenuate TNF levels in endotoxemic TRPA1 KO mice. C) Serum: TRPA1 KO mice received intraperitoneal administration of polygodial (5 mg/kg) (n=9) or vehicle (n=8). After 30 minutes, mice were subjected to endotoxemia (0.1 mg/kg endotoxin, i.p.). Blood was collected after 90 min and serum TNF levels were determined by ELISA. D) Spleen: TRPA1 KO mice received intraperitoneal administration of polygodial (5 mg/kg) (n=9) or vehicle (n=8). After 30 minutes, mice were subjected to endotoxemia (0.1 mg/kg endotoxin, i.p.). Spleens were collected after 90 min and serum TNF levels were determined by ELISA.

TRPA1+ neurons [4] = experiment: as above; assay type: in vivo; settings: TRPA1 KO mice; polygodial 5 mg/kg ip 30 min before endotoxin 0.1 mg/kg ip; collected after 90 min
Protocol: as §5

T1 sequence (Q8BLA8 whole entry): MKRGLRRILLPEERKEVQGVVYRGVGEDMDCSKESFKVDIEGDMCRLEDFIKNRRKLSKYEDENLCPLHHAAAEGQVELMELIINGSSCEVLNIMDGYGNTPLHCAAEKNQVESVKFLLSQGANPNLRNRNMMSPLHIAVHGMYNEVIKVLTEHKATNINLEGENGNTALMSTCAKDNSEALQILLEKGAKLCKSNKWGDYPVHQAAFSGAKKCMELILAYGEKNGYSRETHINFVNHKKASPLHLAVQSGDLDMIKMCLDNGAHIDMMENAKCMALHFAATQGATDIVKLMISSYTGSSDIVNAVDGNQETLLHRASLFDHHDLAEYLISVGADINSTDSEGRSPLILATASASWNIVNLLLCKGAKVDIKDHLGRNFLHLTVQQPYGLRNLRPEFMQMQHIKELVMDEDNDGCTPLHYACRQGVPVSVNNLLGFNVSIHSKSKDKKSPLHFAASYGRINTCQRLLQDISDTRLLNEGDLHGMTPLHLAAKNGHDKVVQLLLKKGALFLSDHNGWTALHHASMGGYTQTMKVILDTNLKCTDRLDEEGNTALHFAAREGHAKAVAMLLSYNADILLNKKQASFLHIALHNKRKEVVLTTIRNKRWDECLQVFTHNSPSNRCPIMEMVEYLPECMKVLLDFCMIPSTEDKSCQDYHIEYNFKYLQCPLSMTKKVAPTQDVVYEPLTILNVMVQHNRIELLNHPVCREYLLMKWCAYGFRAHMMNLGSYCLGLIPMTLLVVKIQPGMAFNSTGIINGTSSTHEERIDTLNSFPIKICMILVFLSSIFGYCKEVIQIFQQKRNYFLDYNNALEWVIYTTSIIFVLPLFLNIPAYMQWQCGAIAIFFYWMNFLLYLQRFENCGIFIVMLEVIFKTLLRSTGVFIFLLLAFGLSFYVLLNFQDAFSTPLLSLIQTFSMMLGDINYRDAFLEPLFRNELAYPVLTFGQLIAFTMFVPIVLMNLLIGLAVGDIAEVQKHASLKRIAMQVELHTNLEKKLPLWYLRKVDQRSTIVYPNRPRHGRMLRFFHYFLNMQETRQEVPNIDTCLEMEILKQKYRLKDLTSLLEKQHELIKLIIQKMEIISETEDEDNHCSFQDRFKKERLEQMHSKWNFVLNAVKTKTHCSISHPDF
T2 sequence (Q8BLA8 whole entry): as above

SMILES: Cn1cnc2ncn(Cc3nc(CCc4ccc(Cl)cc4)no3)c(=O)c21 [AM0902, reference compound]
- Block of inward currents after IL-1β application (nodose ganglion neurons): completely blocked

SMILES: Cc1cc(/C=C2/SC(=S)NC2=O)c(C)n1-c1cccnc1 [optovin]
- TNF levels in response to LPS ([1]; proximally vagotomized mice, optovin + 405 nm light, LPS 8 mg/kg): no significant reduction in TNF levels
- TNF levels in response to LPS ([1]; wild type mice, optovin on vagus nerve, 405 nm light 5 min vs no light, LPS 8 mg/kg ip 2 h later, serum 1.5 h after LPS): significantly reduced TNF levels
- serum TNF levels ([1]; α7 nAChR KO mice, optovin + 405 nm light vs no light, LPS 8 mg/kg): did not significantly reduce serum TNF levels
- TNF levels in response to LPS [2]: no significant reductions in TNF levels

SMILES: CC1(C)CCC[C@]2(C)[C@@H](C=O)C(C=O)=CC[C@@H]12 [polygodial]
- TNF levels in serum (TRPA1+ neurons [3]): attenuates TNF levels
- TNF levels in spleen (TRPA1+ neurons [3]): attenuates TNF levels
- TNF levels in serum (TRPA1+ neurons [4]): no significant reduction
- TNF levels in spleen (TRPA1+ neurons [4]): no significant reduction
